From patent EP4385508A1, “FURAN FATTY ACIDS FOR ENHANCING MUSCLE MASS” (Centre de Coopération Internationale en Recherche …, priority 2022, dated 2024)

How the values were obtained:
Akt (Ser473) = experiment: Akt phosphorylation by Western blot in C2C12 myotubes; assay type: cell-based, Mouse; settings: FuFA-F2 together with insulin; 3-day pretreatment, 2 hours low-glucose, 30 minutes
Protocol: (§1) Mouse myoblasts of the C2C12 cell line (ATCC) were seeded at a plating density of 7000 cells/cm2 in 6-well plates. They were grown in DMEM high glucose (4.5g/l) supplemented with gentamycin (50 µg/mL), amphotericin (50 µg/mL), and fetal calf serum (10%). Terminal differentiation was induced at cell confluence by lowering the medium serum concentration (0.5%).
(§2) When indicated, FuFA-F2 was added to the culture medium at the indicated concentration. For the differentiation studies, FuFA-F2 was added at the confluence at the same time as the change in media condition. Three doses of FuFA-F2 were studied at a final concentration of 1, 10, or 50 µM. Human insulin was used at a concentration of 100 nM.
(§3) Protein levels were assessed by Western blotting. Total proteins were measured using the Bio-Rad protein assay (Hercules, CA, USA) according to the manufacturer's instructions. Total proteins were lysed in RIPA buffer (20mM Tris, 150mM NaCl, 1mM EDTA, 1% NP40, pH 7.5 + complete cocktail protease inhibitors + Pierce phosphatase inhibitors tablet). 40 µg of cell extracts were loaded and blotted onto a nitrocellulose membrane. The membranes were washed, blocked with 5% nonfat milk and incubated in primary antibody overnight at 4°C. […]

[1] = tested on: myosin heavy chain (MyHC); experiment: Slow and fast MyHC protein levels by Western blot in C2C12 myotubes; assay type: cell-based, Mouse
Protocol: as §1, §2, §3
(Figure 5A), commonly used as a quantitative marker of intact mitochondria. […]

myosin heavy chains = experiment: Myosin heavy chain gene expression in quadriceps of supplemented C57Bl6 mice; assay type: in vivo; settings: 20mg/kg oral gavage
Protocol: Male C57Bl/6J wild-type mice were obtained from Janvier at 12 weeks of age and were randomly assigned to one of the two groups based on body weight. Mice were housed 2 per cage and maintained on a 12-hour light/dark cycle (lights on at 7:30 pm). Food and water were provided ad libitum. Enrichment (nesting cotton squares) was provided in each cage. Mice were treated once daily by oral gavage with vehicle (50% PEG-400, 0.5% Tween 80, and 49.5% distilled water) or FuFA-F2 (20 mg/kg). All animal experiments were performed according to European directives (86/609/CEE and 2010/63/CEE) and approved by the regional animal experimentation ethics committe: Région Languedoc-Roussillon (No36). Our institutional guidelines for the care and use of laboratory animals were observed. […]
The PCR overall efficiency (E) was calculated from the slopes of the standard curves according to the equation E = [10^(-1/slope)] - 1, and this value was higher than 95% for all assays. The relative abundance of each sample was then normalized according to the equation: relative quantity = 2^- […]Ct. All of the experiments were performed according to the minimum information for publication of quantitative real-time PCR experiment (MIQE) guidelines (Bustin et al., 2009, Clin Chem, Vol. 55(4) : 611-622; Schmittgen et al., 2008, Net Protoc, Vol. 3(6) : 1101-1108). […]

## CCCCCc1cc(C)c(CCCCCCCCC(=O)O)o1 [FuFA-F2]
Akt (Ser473)
  insulin-induced phosphorylation of Akt: did not alter
[1]; 10 µM
  expression of slow MyHC: significantly increased
[1]; highest dose (50 µM)
  fast MyHC: decrease
Myosin heavy chains
  MyHCIIa expression at the expense of MyHCIIb: trend towards an increase
Myosin heavy chains; treated vs not treated
  expression of the different myosin heavy chains: did not indicate any significant difference
